Measured values as given in patent US20120058172A1, “PLANT EXTRACTS FOR USE IN BRAIN MODULATION” (Intermed Discovery GmbH, priority 2006, published 2012).

Test system: mouse
Test: Marble burying test in the mouse
Assay type: in vivo
Conditions: for Number of marbles covered by sawdust, mean ± s.e.m.: 15 mice per group
Text: More preferably, psychotropic activity can be tested using the Marble Burying Test in the mouse. The method, which detects anxiolytic/tranquillizing activity, follows that described by Broekkamp et al (Eur. J. Pharmacol., 126, 223-229, 1986). The principle of the test is that mice exposed to novel objects (marbles) will bury them in the sawdust floor covering. Anxiolytics decrease the number of marbles buried at non-sedative doses. For the experiment, mice (Male Rj: NMRI mice, weighing 20-30 g (max. range per experiment=5 g) at the beginning of the experiments, obtained from Elevage Janvier, 53940 Le Genest-Saint-Isle, France) are individually placed in transparent plastic cages (33×21×18 cm) with 5 cm of sawdust on the floor. 25 marbles are grouped in the centre of the cage. The cage is covered with an inverted plastic cage. Each test cage, together with the marbles, is impregnated with mouse odor before-hand by leaving 10 mice in the cage for 15 minutes. These mice then play no further role in the experiment. The mice are treated with test substance intraperitoneally (i.p.) 30 min before the test. Administration volume: 10 ml/kg, different dosages are tested (e.g. 2 or more dosages selected from 1, 3, 10, 30 and 100 mg/kg). The test substance is tested for solubility by cold stirring of the highest intended dose for 10 minutes in physiological saline. If soluble, physiological saline serves as vehicle. If insoluble, the test substance is homogenized and dispersed using a mortar and a pestle in 0.2% hydroxypropylmethylcellulose (HPMC) in physiological saline which then serves as the vehicle. Unless indicated otherwise, doses are prepared W/V (stock) and then V/V (serial dilutions) for test substances in solution, and by separate weighings (W/V) for test substances in suspension. Preparations are made freshly for each day of administration and precautions are taken to preserve the homogeneity of suspensions (if applicable) during the period of administration. As control, vehicle is administered. The number of marbles covered by sawdust (2/3 or more) is then counted at the end of a 30 minute test. 15 mice are studied per group. The test is performed blind. Each test substance is evaluated at 3 doses, administered i.p. 30 minutes before the test, and compared with a vehicle control group. Fluoxetine (32 mg/kg i.p.), administered under the same experimental conditions, is used as reference substance. Each experiment therefore includes 5 groups. Data are analyzed by comparing treated groups with vehicle control using unpaired Student's t tests, using commercial software (Microsoft Excel®, SAS® Version 8.2, GB Stat® Version 6.5). With this test system, with compounds of the formula I a decrease of the number of marbles buried and thus an anxiolytic effect can be found, preferably a significant effect (p<0.01) by an i.p. dosage in the range from 1 to 100 mg/kg.
The test is performed as described above.

Row | SMILES | Number of marbles covered by sawdust, % change from control (Vehicle) (32 mg/kg i.p. −30 min) [%] | Number of marbles covered by sawdust, mean ± s.e.m. (32 mg/kg i.p. −30 min) | Number of marbles covered by sawdust, % change from control (Vehicle) (1 mg/kg i.p. −30 min) [%] | Number of marbles covered by sawdust, mean ± s.e.m. (1 mg/kg i.p. −30 min) [NS] | Number of marbles covered by sawdust, % change from control (Vehicle) (3 mg/kg i.p. −30 min) [%] | Number of marbles covered by sawdust, mean ± s.e.m. (3 mg/kg i.p. −30 min) [NS] | Number of marbles covered by sawdust, % change from control (Vehicle) (10 mg/kg i.p. −30 min) [%] | Number of marbles covered by sawdust, mean ± s.e.m. (10 mg/kg i.p. −30 min)
1 | CNCCC(Oc1ccc(C(F)(F)F)cc1)c1ccccc1 (centres unmarked) [FLUOXETINE, Fluoxetine, reference compound] | −100 | 0.0 ± 0.0 | – | – | – | – | – | –
2 | CC(C)C[C@@H](c1c(O)c(C=O)c(O)c(C=O)c1O)[C@@]1(C)CC[C@@H]2[C@@H]1[C@H]1[C@@H](CC[C@@]2(C)O)C1(C)C [Macrocarpale A, Macrocarpal A] | – | – | −5 | 15.7 ± 2.5 | −37 | 10.4 ± 2.3 | −53 | 7.7 ± 2.4
